The values below come from ChEMBL document CHEMBL1123605, “Renin inhibitors. Dipeptide analogues of angiotensinogen incorporating transition-state, nonpeptidic replacements at the scissile bond” (J Med Chem, 1987).

A value given as a limit tells only on which side of the number the result lay.

The target in experiment [1] is T1, Renin (Rattus norvegicus) (UniProt P08424).
T1 sequence (whole entry): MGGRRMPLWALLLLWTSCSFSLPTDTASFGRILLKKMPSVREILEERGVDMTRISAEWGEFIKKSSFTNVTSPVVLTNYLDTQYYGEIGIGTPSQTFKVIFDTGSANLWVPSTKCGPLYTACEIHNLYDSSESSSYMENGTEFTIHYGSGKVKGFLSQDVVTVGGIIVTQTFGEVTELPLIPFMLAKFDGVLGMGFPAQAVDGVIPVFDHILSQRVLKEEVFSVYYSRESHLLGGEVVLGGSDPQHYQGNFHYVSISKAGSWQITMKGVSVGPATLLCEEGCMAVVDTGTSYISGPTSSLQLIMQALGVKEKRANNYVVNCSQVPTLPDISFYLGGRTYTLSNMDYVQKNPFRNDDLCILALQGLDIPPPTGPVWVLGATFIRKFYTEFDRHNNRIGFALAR
Nature of the experiment: Percentage inhibition against rat plasma renin at 1.0x10E-5M. It is filed as cell-free.

Experiment [2] has as its target Pepsin A (Sus scrofa) (UniProt P00791). Nature of the experiment: Percentage inhibition against pepsin; NI=no inhibition at 1.0x10E-5M.
In experiment [3] the target is T2, Cathepsin D (Bos taurus) (UniProt P80209).
T2 sequence (whole entry): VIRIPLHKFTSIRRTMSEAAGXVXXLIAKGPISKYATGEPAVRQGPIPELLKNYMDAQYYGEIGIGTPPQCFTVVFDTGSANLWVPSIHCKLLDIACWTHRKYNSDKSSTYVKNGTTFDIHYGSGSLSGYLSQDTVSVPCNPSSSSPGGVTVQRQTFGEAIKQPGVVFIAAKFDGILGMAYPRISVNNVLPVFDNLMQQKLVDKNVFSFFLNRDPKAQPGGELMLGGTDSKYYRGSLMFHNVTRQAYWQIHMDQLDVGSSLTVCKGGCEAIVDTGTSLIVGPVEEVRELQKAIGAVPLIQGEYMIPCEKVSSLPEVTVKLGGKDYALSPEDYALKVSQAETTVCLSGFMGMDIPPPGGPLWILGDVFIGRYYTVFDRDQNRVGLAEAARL
The experiment in a line: Percentage inhibition against cathepsin D at 1.0x10E-5M.

Experiment [4] addresses T3, Renin (Homo sapiens, UniProt P00797).
T3 sequence (P00797 whole entry): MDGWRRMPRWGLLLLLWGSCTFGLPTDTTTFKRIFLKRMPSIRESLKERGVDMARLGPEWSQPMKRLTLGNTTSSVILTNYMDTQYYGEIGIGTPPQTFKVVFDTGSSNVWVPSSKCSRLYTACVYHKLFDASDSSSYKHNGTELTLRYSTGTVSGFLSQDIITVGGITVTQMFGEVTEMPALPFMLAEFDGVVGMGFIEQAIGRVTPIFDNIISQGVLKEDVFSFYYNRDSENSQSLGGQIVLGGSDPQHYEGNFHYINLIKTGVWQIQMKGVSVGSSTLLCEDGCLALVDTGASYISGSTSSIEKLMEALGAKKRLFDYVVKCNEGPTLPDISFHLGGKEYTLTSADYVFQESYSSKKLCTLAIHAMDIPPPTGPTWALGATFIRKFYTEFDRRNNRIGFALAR
Nature of the experiment: Inhibition against purified human renin.

In experiment [5] the target is T3, Renin. Nature of the experiment: Inhibition against human plasma renin. In kind it is cell-free.
In experiment [6] the target is T4, Cathepsin D (Bos taurus, UniProt P80209).
T4 sequence (P80209 whole entry): T2 sequence (whole entry)
The experiment in a line: Inhibition against cathepsin D.

In experiment [7] the target is T3, Renin. Nature of the experiment: Inhibition against purified human renal renin.
In experiment [8] the target is T5, Renin (Rattus norvegicus, UniProt P08424).
T5 sequence (P08424 whole entry): T1 sequence (whole entry)
Nature of the experiment: Inhibition against rat plasma renin. It is filed as cell-free.

Experiment [9] addresses T1, Renin (Rattus norvegicus). Nature of the experiment: Percentage inhibition against rat plasma renin. Particulars: concentration not given here. It is filed as cell-free.
Experiment [10] concerns the target T5, Renin. The experiment in a line: Inhibition against rat plasma renin. In kind it is cell-free.

Pepsin A (Sus scrofa), sequence (P00791 60-385 limits assumed): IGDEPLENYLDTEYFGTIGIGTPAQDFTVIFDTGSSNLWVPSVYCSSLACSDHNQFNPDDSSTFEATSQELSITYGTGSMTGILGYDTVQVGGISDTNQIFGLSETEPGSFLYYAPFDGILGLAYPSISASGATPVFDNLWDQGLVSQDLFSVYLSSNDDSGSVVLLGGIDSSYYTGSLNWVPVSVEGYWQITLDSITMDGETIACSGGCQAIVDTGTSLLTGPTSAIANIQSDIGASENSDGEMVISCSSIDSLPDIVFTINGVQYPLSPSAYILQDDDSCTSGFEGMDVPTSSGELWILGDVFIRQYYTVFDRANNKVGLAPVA

A word on the inhibition: it is how much of the control response was suppressed. Take `CCOC(=O)N[C@@H](Cc1ccccc1)C(=O)N[C@@H](Cc1c[nH]cn1)C(=O)N[C@@H](CC1CCCCC1)[C@@H](O)CCS(=O)(=O)C(C)C`: the inhibition in experiment [1] was 12%; in experiment [2], “No inhibition”; in experiment [3] it was 0%.
For orientation: IC50 means the concentration that inhibits the measured activity by half. In experiment [4], `CC(C)C[C@H](NC(=O)[C@H](C)NC(=O)[C@H](Cc1ccccc1)NC(=O)OC(C)(C)C)[C@@H](O)CCS(=O)(=O)CCc1ccccc1` gave an IC50 of 1800 nM.
In the case of `CCOC(=O)N[C@@H](Cc1ccccc1)C(=O)N[C@@H](Cc1cnc[nH]1)C(=O)N[C@@H](CC1CCCCC1)[C@@H](O)CCS(=O)(=O)C(C)C`, the IC50 in experiment [5] was 23 nM; in experiment [6] it was over 10000 nM; in [7], 10 nM; in experiment [8] it was over 10000 nM.
`CC(C)CCC(=O)CC[C@H](O)[C@H](CC(C)C)NC(=O)[C@H](C)NC(=O)[C@H](Cc1ccccc1)NC(=O)OC(C)(C)C` registered an IC50 in [4] of 2400 nM.
In the case of `CC(C)CSCC[C@H](O)[C@H](CC(C)C)NC(=O)[C@H](C)NC(=O)[C@H](Cc1ccccc1)NC(=O)OC(C)(C)C`, the IC50 in [4] was found to be 4100 nM.
As for `CC(C)S(=O)(=O)CC[C@H](O)[C@H](CC1CCCCC1)NC(=O)[C@H](Cc1c[nH]cn1)NC(=O)[C@H](Cc1ccccc1)NC(=O)OC(C)(C)C`, the inhibition in experiment [9] worked out at 11%; in experiment [3], 0%. Further, the IC50 came out at 7.6 nM in [4], 10000 nM in experiment [10], 27 nM in experiment [5] and 10000 nM in experiment [6].
The compound `CC(C)C[C@H](NC(=O)[C@H](C)NC(=O)[C@H](Cc1ccccc1)NC(=O)OC(C)(C)C)[C@@H](O)CCS(=O)(=O)CC(C)C` returned an IC50 in experiment [4] of 3200 nM.
In experiment [4], `CC(C)CCC(O)CC[C@H](O)[C@H](CC(C)C)NC(=O)[C@H](C)NC(=O)[C@H](Cc1ccccc1)NC(=O)OC(C)(C)C` (some centres not stated) gave an IC50 of 3800 nM.
Turning to `CC(C)S(=O)(=O)CC[C@H](O)[C@H](CC1CCCCC1)NC(=O)[C@H](Cc1ccccc1)NC(=O)[C@H](Cc1ccccc1)NC(=O)OC(C)(C)C`, the inhibition in experiment [1] was 26%; in experiment [2], “No inhibition”; in [3], 0%. Besides, the IC50 in experiment [5] was 340 nM; in experiment [6], over 10000 nM; in [7], 20 nM; in [8], over 10000 nM.
As for `CC(C)CCSCC[C@H](O)[C@H](CC(C)C)NC(=O)[C@H](C)NC(=O)[C@H](Cc1ccccc1)NC(=O)OC(C)(C)C`, the midpoint of inhibition in [4], the IC50, lay at 5500 nM.
Turning to `CCS(=O)(=O)CC[C@H](O)[C@H](CC1CCCCC1)NC(=O)[C@H](Cc1cnc[nH]1)NC(=O)[C@H](Cc1ccccc1)NC(=O)OC(C)(C)C`, the IC50 was 7.6 nM in experiment [4], over 10000 nM in experiment [10], 28 nM in experiment [5] and over 10000 nM in [6].
Consider `CC(C)S(=O)(=O)CC[C@H](O)[C@H](CC1CCCCC1)NC(=O)[C@H](Cc1c[nH]cn1)NC(=O)[C@H](Cc1ccccc1)NC(=O)CC(C)(C)C`, for which the inhibition was 30% in [1], “No inhibition” in experiment [2] and 0% in [3]. The IC50 in experiment [5] is 19 nM; in [6], over 10000 nM; in [7], 6 nM; in experiment [8], over 10000 nM.
`CC(C)C[C@H](NC(=O)[C@H](C)NC(=O)[C@H](Cc1ccccc1)NC(=O)OC(C)(C)C)[C@@H](O)CCSCCc1ccccc1` displayed an IC50 in experiment [4] of 4200 nM.
As for `CCS(=O)(=O)CC[C@H](O)[C@H](CC1CCCCC1)NC(=O)[C@H](Cc1c[nH]cn1)NC(=O)[C@H](Cc1ccccc1)NC(=O)OC(C)(C)C`, the inhibition in experiment [9] and in experiment [3] was 0% each time.
On to `CC(C)C[C@H](NC(=O)[C@H](C)NC(=O)[C@H](Cc1ccccc1)NC(=O)OC(C)(C)C)[C@@H](O)CCSC(C)C`, for which the IC50 in [4] came out at 4800 nM.
On to `CC(C)CC[S+]([O-])CC[C@H](O)[C@H](CC(C)C)NC(=O)[C@H](C)NC(=O)[C@H](Cc1ccccc1)NC(=O)OC(C)(C)C` (some centres not stated), for which, in [4], the IC50 was found to be 5200 nM.
Take `CC(C)C[C@H](NC(=O)[C@H](Cc1ccccc1)NC(=O)OC(C)(C)C)C(=O)N[C@@H](CC1CCCCC1)[C@@H](O)CCS(=O)(=O)C(C)C`: the inhibition was 18% in experiment [1] and “No inhibition” in experiment [2]. Also, the IC50 is 77 nM in experiment [5], 8000 nM in [6], 14 nM in [7] and over 10000 nM in experiment [8].
As for `CC(C)CCS(=O)(=O)CC[C@H](O)[C@H](CC(C)C)NC(=O)[C@H](C)NC(=O)[C@H](Cc1ccccc1)NC(=O)OC(C)(C)C`, in [4], the IC50 was found to be 2400 nM.
Turning to `CCS(=O)(=O)CC[C@H](O)[C@H](CC1CCCCC1)NC(=O)[C@H](C)NC(=O)[C@H](Cc1ccccc1)NC(=O)OC(C)(C)C`, the inhibition in experiment [1] was 2%; in experiment [2], “No inhibition”; in experiment [3] it was 18%. The IC50 in experiment [5] was 1000 nM; in experiment [6], over 10000 nM; in [7] it was 140 nM; in [8], over 10000 nM.
On to `COc1ccc(C[C@H](NC(=O)OC(C)(C)C)C(=O)N[C@@H](Cc2c[nH]cn2)C(=O)N[C@@H](CC2CCCCC2)[C@@H](O)CCS(=O)(=O)C(C)C)cc1`, for which the inhibition is 0% in [1], “No inhibition” in experiment [2] and 0% in [3]. The IC50 in experiment [5] is 41 nM; in experiment [6] it was over 10000 nM; in [7] it was 9.1 nM; in experiment [8], over 10000 nM.
In [5], `CC[C@H](C)[C@H](NC(=O)[C@@H](NC(O)[C@H](CC(C)C)NC(=O)[C@H](Cc1c[nH]cn1)NC(=O)[C@H](Cc1ccccc1)NC(=O)[C@@H]1CCCN1C(=O)[C@H](Cc1c[nH]cn1)NC(=O)OC(C)(C)C)C(C)C)C(=O)N[C@@H](Cc1c[nH]cn1)C(=O)O` (some centres not stated) yielded an IC50 of 0.7 nM.
In the case of `CC(C)C[C@H](NC(=O)[C@H](C)NC(=O)[C@H](Cc1ccccc1)NC(=O)OC(C)(C)C)[C@@H](O)CCS(=O)(=O)C(C)C`, in experiment [4], half-maximal inhibition (IC50) required 1600 nM.
`CC(C)S(=O)(=O)CC[C@H](O)[C@H](CC1CCCCC1)NC(=O)[C@H](C)NC(=O)[C@H](Cc1ccccc1)NC(=O)OC(C)(C)C`: the inhibition in experiment [1] is 12%; in [2], “No inhibition”; in experiment [3], 22%. Besides, the IC50 in experiment [5] was 850 nM; in [6], over 10000 nM; in [7], 76 nM; in [8], over 10000 nM.
